Tests used:
Alternaria solani = Alternaria solani (early blight of tomato/potato) mycelial radial growth on Potato Dextrose Agar; conditions: 168 h, read-out: control
Experimental: Compounds were dissolved in 0.3% DMSO & then added to Potato Dextrose Agar medium just prior to dispensing it into Petri dishes. 5 ml medium with compound in the desired concentration was dispensed into 60 mm sterile petri-plates. After solidification each plate was seeded with 5 mm size mycelial disc taken form periphery of actively growing virulent culture plate. Plates were incubated in growth chambers at 25° C. temperature and 60% relative humidity for seven days and radial growth was measured.

Phakopsora pachyrhizi = Phakopsora pachyrhizi test in soybean, preventive spray in greenhouse; assay type: in vivo; conditions: preventive spray on soybean plants, inoculated one day after treatment, compared to the untreated check, read-out: control (efficacy from disease severity rating)
Pyricularia oryzae = test: microbe, parasite or virus in culture; assay type: cell-based; conditions: 168 h, read-out: control

Row | Structure (SMILES) | inhibition of growth at 300 ppm (Alternaria solani) | pest or weed control at 500 ppm (Phakopsora pachyrhizi) | inhibition of growth at 300 ppm (Pyricularia oryzae)
1 | COc1ccc(S(C)(=O)=NC(=O)c2ccc(-c3coc(C(F)(F)F)n3)cc2)cc1 (centres unmarked) [Compound 78, N-((4-methoxyphenyl)(methyl)(oxo)-λ^6-sulfaneylidene)-4-(2-(trifluoromethyl)oxazol-4-yl)benzamide] | > 70% | – | –
2 | CS(=O)(=NCc1ccc(-c2n[nH]c(C(F)(F)F)n2)cc1)c1cccnc1 (centres unmarked) [Compound 47, Methyl(pyridin-3-yl)((4-(5-(trifluoromethyl)-1h-1,2,4-triazol-3-yl)benzyl)imino)-λ^6-sulfanone] | – | > 90% | –
3 | CS(=O)(=Nc1ccc(-c2n[nH]c(C(F)(F)F)n2)cc1)c1ccc(C(F)(F)F)cc1 (centres unmarked) [Compound 40, Methyl((4-(5-(trifluoromethyl)-1h-1,2,4-triazol-3-yl)phenyl)imino)(4-(trifluoromethyl)phenyl)-λ^6-sulfanone] | – | > 90% | –
4 | CS(=O)(=NC(=O)c1ccc(-c2coc(C(F)(F)F)n2)cc1)c1ccccc1 (centres unmarked) [Compound 83, N-(methyl(oxo)(phenyl)-λ^6-sulfaneylidene)-4-(2-(trifluoromethyl)oxazol-4-yl)benzamide] | – | > 90% | –
5 | CS(=O)(=NCc1ccc(C2=NOC(C(F)F)N2)cc1)c1ccccc1 (centres unmarked) [Compound 27, ((4-(5-(difluoromethyl)-4,5-dihydro-1,2,4-oxadiazol-3-yl)benzyl)imino)(methyl)(phenyl)-λ^6-sulfanone] | – | – | > 70%
6 | CN(CCOc1ccccc1)C(=O)c1ccc(-c2nc(C(F)(F)F)oc2Cl)cc1 [Compound 71, 4-(5-chloro-2-(trifluoromethyl)oxazol-4-yl)-N-methyl-N-(2-phenoxyethyl)benzamide] | – | > 90% | –
7 | COc1ccc(S(C)(=O)=Nc2ccc(C3=NOC(C(F)(F)F)N3)cc2)cc1 (centres unmarked) [Compound 16, (4-methoxyphenyl)(methyl)((4-(5-(trifluoromethyl)-4,5-dihydro-1,2,4-oxadiazol-3-yl)phenyl)imino)-λ^6-sulfanone] | > 70% | – | > 70%
8 | CS(=O)(=NC(=O)c1ccc(-c2coc(C(F)(F)F)n2)cc1)c1ccc(F)cc1 (centres unmarked) [Compound 69, N-((4-fluorophenyl)(methyl)(oxo)-λ^6-sulfaneylidene)-4-(2-(trifluoromethyl)oxazol-4-yl)benzamide] | – | > 90% | –
9 | CS(=O)(=NC(=O)c1ccc(C2=NOC(C(F)(F)F)N2)cc1)c1ccc(Cl)cc1 (centres unmarked) [Compound 1, N-((4-chlorophenyl)(methyl)(oxo)-λ^6-sulfaneylidene)-4-(5-(trifluoromethyl)-4,5-dihydro-1,2,4-oxadiazol-3-yl)benzamide] | – | > 90% | > 70%
10 | CC(C(=O)Nc1ccc(C2=NOC(C(F)(F)F)N2)cc1)c1ccccc1 (centres unmarked) [Compound 20, 2-phenyl-N-(4-(5-(trifluoromethyl)-4,5-dihydro-1,2,4-oxadiazol-3-yl)phenyl)propanamide] | – | > 90% | –
11 | CN(Cc1ccc(-c2n[nH]c(C(F)(F)F)n2)cc1)C(=O)C1CC1 [Compound 37, N-methyl-N-(4-(5-(trifluoromethyl)-1h-1,2,4-triazol-3-yl)benzyl)cyclopropanecarboxamide] | > 70% | – | –
12 | O=C(Cc1ccccc1)Nc1ccc(C2=NOC(C(F)(F)F)N2)cc1 (centres unmarked) [Compound 23, 2-phenyl-N-(4-(5-(trifluoromethyl)-4,5-dihydro-1,2,4-oxadiazol-3-yl)phenyl)acetamide] | – | > 90% | –
13 | O=C(Cc1ccccc1)Nc1ccc(-c2noc(C(F)F)n2)cc1 [Compound 31, N-(4-(5-(difluoromethyl)-1,2,4-oxadiazol-3-yl)phenyl)-2-phenylacetamide] | > 70% | – | –
14 | CS(=O)(=NC(=O)c1ccc(-c2coc(C(F)(F)F)n2)cc1)c1ccc(Cl)cc1 (centres unmarked) [Compound 72, N-((4-chlorophenyl)(methyl)(oxo)-λ^6-sulfaneylidene)-4-(2-(trifluoromethyl)oxazol-4-yl)benzamide] | – | > 90% | –
15 | O=C(O)c1ccc(-c2cc(C(F)(F)F)on2)cc1 [Compound 56, 4-(5-(trifluoromethyl)isoxazol-3-yl)benzoic acid] | > 70% | > 90% | –
16 | CN(Cc1ccc(-c2n[nH]c(C(F)(F)F)n2)cc1)C(=O)C1CCC1 [Compound 38, N-methyl-N-(4-(5-(trifluoromethyl)-1h-1,2,4-triazol-3-yl)benzyl)cyclobutanecarboxamide] | > 70% | – | –
17 | O=C(Nc1ccc(F)cc1F)c1ccc(-c2cc(C(F)(F)F)on2)cc1 [Compound 57, N-(2,4-difluorophenyl)-4-(5-(trifluoromethyl)isoxazol-3-yl)benzamide] | – | > 90% | –
18 | O=C(Nc1ccc(F)cc1F)c1ccc(-c2nc(C(F)(F)F)n[nH]2)cc1 [Compound 44, N-(2,4-difluorophenyl)-4-(3-(trifluoromethyl)-1h-1,2,4-triazol-5-yl)benzamide] | – | > 90% | –
19 | CN(Cc1ccc(C2=NOC(C(F)(F)F)N2)cc1)C(=O)C1CCC1 (centres unmarked) [Compound 22, N-methyl-N-(4-(5-(trifluoromethyl)-4,5-dihydro-1,2,4-oxadiazol-3-yl)benzyl)cyclobutanecarboxamide] | – | > 90% | –

Row | Structure (SMILES) | inhibition of growth at 300 ppm (Alternaria solani) | pest or weed control at 500 ppm (Phakopsora pachyrhizi) | inhibition of growth at 300 ppm (Pyricularia oryzae)
20 | CS(=O)(=NC(=O)c1ccc(-c2cc(C(F)(F)F)on2)cc1)c1ccccc1 (centres unmarked) [Compound 66, N-(methyl(oxo)(phenyl)-λ^6-sulfaneylidene)-4-(5-(trifluoromethyl)isoxazol-3-yl)benzamide] | – | > 90% | –
21 | O=C(Nc1ccccc1)c1ccc(-c2coc(C(F)(F)F)n2)cc1 [Compound 81, N-phenyl-4-(2-(trifluoromethyl)oxazol-4-yl)benzamide] | > 70% | – | –
22 | CN(CCOc1ccccc1)C(=O)c1ccc(-c2cc(C(F)(F)F)on2)cc1 [Compound 65, N-methyl-N-(2-phenoxyethyl)-4-(5-(trifluoromethyl)isoxazol-3-yl)benzamide] | – | > 90% | –
23 | CN(CCOc1ccccc1)C(=O)c1ccc(-c2noc(C(F)F)n2)cc1 [Compound 17, 4-(5-(difluoromethyl)-1,2,4-oxadiazol-3-yl)-N-methyl-N-(2-phenoxyethyl)benzamide] | – | – | > 70%
24 | CN(Cc1ccc(C2=NOC(C(F)(F)F)N2)cc1)C(=O)C1CC1 (centres unmarked) [Compound 21, N-methyl-N-(4-(5-(trifluoromethyl)-4,5-dihydro-1,2,4-oxadiazol-3-yl)benzyl)cyclopropanecarboxamide] | – | > 90% | –
25 | CC(C)(C)C(=O)NCc1ccc(-c2n[nH]c(C(F)(F)F)n2)cc1 [Compound 3, N-(4-(5-(trifluoromethyl)-1h-1,2,4-triazol-3-yl)benzyl)pivalamide] | – | > 90% | –
26 | COc1ccc(S(C)(=O)=Nc2ccc(-c3n[nH]c(C(F)(F)F)n3)cc2)cc1 (centres unmarked) [Compound 43, (4-methyoxyphenyl)(methyl)((4-(5-(trifluoromethyl)-1h-1,2,4-triazol-3-yl)phenyl)imino)-λ^6-sulfanone] | – | > 90% | –
27 | O=C(Nc1c(F)cccc1F)c1ccc(-c2coc(C(F)(F)F)n2)cc1 [Compound 80, N-(2,6-difluorophenyl)-4-(2-(trifluoromethyl)oxazol-4-yl)benzamide] | – | > 90% | –
28 | O=C(Nc1ccc(F)cc1F)c1ccc(-c2coc(C(F)(F)F)n2)cc1 [Compound 77, N-(2,4-difluorophenyl)-4-(2-(trifluoromethyl)oxazol-4-yl)benzamide] | – | > 90% | –
29 | Cn1nc(C(F)(F)F)nc1-c1ccc(S(=O)(=O)c2ccccc2)cc1 [Compound 34, 1-methyl-5-(4-(phenylsulfonyl)phenyl)-3-(trifluoromethyl)-1h-1,2,4-triazole] | – | > 90% | –
30 | COc1ccc(S(C)(=O)=NC(=O)c2ccc(C3=NOC(C(F)(F)F)N3)cc2)cc1 (centres unmarked) [Compound 25, N-((4-methoxyphenyl)(methyl)(oxo)-λ^6-sulfaneylidene)-4-(5-(trifluoromethyl)-4,5-dihydro-1,2,4-oxadiazol-3-yl)benzamide] | > 70% | > 90% | –
31 | CS(=O)(=NC(=O)c1ccc(-c2nc(C(F)(F)F)oc2Cl)cc1)c1ccccc1 (centres unmarked) [Compound 74, 4-(5-chloro-2-(trifluoromethyl)oxazol-4-yl)-N-(methyl(oxo)(phenyl)-λ^6-sulfaneylidene)benzamide] | – | > 90% | –
32 | O=C(Nc1ccc(Cl)cc1F)c1ccc(C2=NOC(C(F)(F)F)N2)cc1 (centres unmarked) [Compound 29, N-(4-chloro-2-fluorophenyl)-4-(5-(trifluoromethyl)-4,5-dihydro-1,2,4-oxadiazol-3-yl)benzamide] | – | > 90% | –
33 | CS(=O)(=NC(=O)c1ccc(-c2cc(C(F)(F)F)on2)cc1)c1ccccn1 (centres unmarked) [Compound 62, N-(methyl(oxo)(pyridin-2-yl)-λ^6-sulfaneylidene)-4-(5-(trifluoromethyl)isoxazol-3-yl)benzamide] | > 70% | – | –
34 | CN(CCOc1ccccc1)C(=O)c1ccc(-c2n[nH]c(C(F)(F)F)n2)cc1 [Compound 11, N-methyl-N-(2-phenoxyethyl)-4-(5-(trifluoromethyl)-1h-1,2,4-triazol-3-yl)benzamide] | > 70% | – | –
35 | O=C(Nc1ccc(F)cc1F)c1ccc(-c2nc(C(F)(F)F)oc2Cl)cc1 [Compound 70, 4-(5-chloro-2-(trifluoromethyl)oxazol-4-yl)-N-(2,4-difluorophenyl)benzamide] | – | > 90% | –
36 | CS(=O)(=NCc1ccc(-c2nc(C(F)F)n[nH]2)cc1)c1ccccc1 (centres unmarked) [Compound 42, ((4-(3-(difluoromethyl)-1h-1,2,4-triazol-5-yl)benzyl)imino)(methyl)(phenyl)-λ^6-sulfanone] | – | – | > 70%
37 | CS(=O)(=Nc1ccc(C2=NOC(C(F)(F)F)N2)cc1)c1ccc(C(F)(F)F)cc1 (centres unmarked) [Compound 26, Methyl((4-(5-(trifluoromethyl)-4,5-dihydro-1,2,4-oxadiazol-3-yl)phenyl)imino)(4-(trifluoromethyl)phenyl)-λ^6-sulfanone] | > 70% | – | –

Source: patent US20210002232A1, “HETEROCYCLIC COMPOUNDS AS FUNGICIDES” (PI INDUSTRIES LTD., priority 2018, published 2021)
